The conditions of data set [1]: cited from earlier work.
Data set [2] is described as follows: Inhibition and re-activation of HF: quartz dissolution. The following applies: by themselves. The procedure:
HF was inhibited by the addition of monoethanolamine (MEA), until no quartz (SiO2) was dissolved. A molar ratio of 1 MEA to HF or greater is necessary to inhibit HF's ability to dissolve quartz, and a ratio of 1.1 will used in further testing to provide a reasonable safety margin.
The inhibited HF solution can regain its quartz dissolving potential through the addition of an acidic solution, such as HCl.
To evaluate the performance of mud acids created with acid compositions comprising HCl:MEA in ratios of 4.4:1; 6.3:1; and 11.3:1, inhibited HF mud acids were prepared using HCl and acid compositions comprising HCl:MEA in ratios of 4.4:1; and 11.3:1 with various amount of free HCl (6 to 12%).

The source of these data is patent US12091601B2 (priority 2020, dated 2024).

The structures appear in SMILES notation. Structures can show the parent of a compound that is named as a salt.

Consider `F[Si-2](F)(F)(F)(F)F.[Na+].[Na+]` [Na2SiF6], for which, in data set [1], the “concentration above which precipitation occurs / solubility” value was 6400 µg/mL.

For `Cl` [HCl], the quartz dissolved entry in data set [2] is reported as “essentially no quartz”.
